Results: patent US20260250278A1, “PHENYL-SUBSTITUTED DIHYDRONAPHTHYRIDINE COMPOUNDS, AND PREPARATION AND USE THEREOF” (SUZHONG PHARMACEUTICAL GROUP CO., LTD., priority 2022, published 2026)

Key:
[1] = test system: diabetic nephropathy mouse model; assay: Pharmacodynamic effects on diabetic nephropathy mouse model; format: in vivo; conditions: KK-Ay mice
Description: The pharmacodynamic effects of the compounds 36 and 62 on the diabetic nephropathy mouse model were evaluated.
• Strain: C57BL/6 mice, and KK-Ay mice • Weeks of age: the animals were raised to 6 weeks to 8 weeks of age, and the experiment was started when the animals were 7 weeks to 9 weeks of age • Sex: male • Weight: C57BL/6 mice: 21 g to 23 g, and KK-Ay mice: 25 g to 30 g • Number: 72 experimental animals
On the day of administration, the animals were randomly divided into 9 groups according to their weights, comprising a model group (KK-Ay+solvent), a Finerenone group (KK-Ay+Finerenone: 3 mg/kg), a low-dose compound 62 group (KK-Ay+compound 62: 1 mg/kg), a middle-dose compound 62 group (KK-Ay+compound 62: 3 mg/kg) and high-dose compound 62 group (KK-Ay+compound 62: 10 mg/kg), a low-dose compound 36 group (KK-Ay+compound 36: 1 mg/kg), a middle-dose compound 36 group (KK-Ay+compound 36: 3 mg/kg) and a high-dose compound 36 group (KK-Ay+compound 36: 10 mg/kg). Specific grouping and administration schemes referred to Table 70-2.
When the experiment was started, 24-hour urine of the mice was collected by a metabolic cage in 2nd, 4th, 6th and 8th weeks before and after modeling, and microalbumin (MALB) and creatinine (CREA) contents of the urine were detected by CANON TBA-120FR automatic blood biochemistry to calculate (MALB/CREA).
When the experiment was ended, the mice were euthanized, the blood was taken by heart puncture and put into an anticoagulant-free EP tube, allowed to stand at room temperature for 0.5 hour, and then centrifuged at 4° C. and 6000 g for 15 minutes, and the serum was collected and transferred to a new EP tube, and stored in a refrigerator at −80° C. An insulin content of the serum and serum ions were detected by an ELISA method.
After the experiment was ended, the kidneys of all animals were dissected and collected, fixed in formalin, embedded and made into sections for PAS staining and Masson staining, and then quantitatively analyzed.
Experimental results were expressed as “mean value±standard deviation”. The data of each group were statistically analyzed by GraphPad 8.0 software, and p<0.05 was considered to be statistically significant.

[2] = Tissue distribution, AUC ratio of heart to kidney; format: in vivo; conditions: compared with Finerenone

## CCOc1ncc(C)c2c1[C@H](c1ccc(C#N)c3c1OCC3)C(C(N)=O)=C(C)N2 [Example 36, (S)-4-(4-cyano-2,3-dihydrobenzofuran-7-yl)-5-ethoxy-2,8-dimethyl-1,4-dihydro-1,6-naphthyridine-3-formamide]
[1]
  diabetic nephropathy and hypertension: improve
  urinary protein/creatinine ratio: significantly reduce
  urinary sodium excretion: significantly promote
[2]
  AUC (tissue distribution) ratio of heart to kidney: lower

## CCOc1ncc(C)c2c1[C@H](c1ccc(C#N)c3c1OCO3)C(C(N)=O)=C(C)N2 [Example 62, (S)-4-(7-cyanobenzo[d][1,3]dioxol-4-yl)-5-ethoxy-2,8-dimethyl-1,4-dihydro-1,6-naphthyridine-3-formamide]
[1]
  diabetic nephropathy and hypertension: improve
  urinary protein/creatinine ratio: significantly reduce
  urinary sodium excretion: significantly promote
